Drawing on patent US7998978B2 (Pfizer Inc., priority 2006, dated 2011), this text covers inhibition and Ki for 14 compounds.

In general, inhibition refers to the drop in the measured response relative to a control, in per cent. One may read the Ki as a measure of affinity in units of concentration, obtained from inhibition or displacement. High values mean lower affinity, low ones higher affinity.

The target of the first assay is T1, JNK1α1 (Homo sapiens, UniProt P45983).
T1 construct: catalytic domain containing amino acids 1-364 and N-terminal hexahistidine tag; hexahistidine (His6) (N); made in house; host or cells: E. coli BL21 (DE3)
T1 sequence (P45983 1-364): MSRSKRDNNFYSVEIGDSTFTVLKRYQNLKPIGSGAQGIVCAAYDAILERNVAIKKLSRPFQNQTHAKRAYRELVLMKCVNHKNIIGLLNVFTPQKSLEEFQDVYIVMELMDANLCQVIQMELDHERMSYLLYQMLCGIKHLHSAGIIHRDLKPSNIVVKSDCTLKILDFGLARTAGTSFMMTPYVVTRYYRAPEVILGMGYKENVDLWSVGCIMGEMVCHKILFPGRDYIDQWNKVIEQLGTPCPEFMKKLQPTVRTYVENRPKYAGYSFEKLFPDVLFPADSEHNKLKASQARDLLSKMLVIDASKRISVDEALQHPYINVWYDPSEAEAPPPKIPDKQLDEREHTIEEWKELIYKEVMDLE
Kind of assay: Coupled spectrophotometric (PK/LDH) JNK1α1 assay: % inhibition and Ki determination. It counts as biochemical. As to conditions: @1 uM; read-out: % Inhibition JNK-1. In short, it runs like this: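 Initial rates were taken from the absorbance decrease at 340 nm at 30° C. Ki was fitted with a tight-binding model over 11 concentrations (top 100 μM); single-point inhibition was tested at 1 or 10 μM.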
For `Cc1nn(C)c(C)c1NC(=O)c1cccc2cnc(N[C@H]3CC[C@H](O)CC3)nc12` [Example 318, 2-[(trans-4-hydroxycyclohexyl)amino]-N-(1,3,5-trimethyl-1H-pyrazol-4-yl)quinazoline-8-carboxamide], the inhibition at 1 µM was determined as 37%.

As to `CC(CN1CCOCC1)Oc1ccc2cnc(N[C@H]3CC[C@H](O)CC3)nc2c1` (stereo partly drawn) [Example 274, trans-4-{[7-(1-methyl-2-morpholin-4-ylethoxy)quinazolin-2-yl]amino}cyclohexanol], the inhibition at 1 µM amounted to 25%.

As for `CO[C@H]1CCCC[C@@H]1Oc1ccc2cnc(N[C@H]3CC[C@H](O)CC3)nc2c1` [Example 291, trans-4-[(7-{[(1S,2S)-2-methoxycyclohexyl]oxy}quinazolin-2-yl)amino]cyclohexanol], the inhibition at 1 µM came to 37%.

Regarding `CC(C)Nc1ncc2ccc(C(=O)N[C@H](CO)CC3CCCCC3)cc2n1` [Example 429, N-[(1S)-2-cyclohexyl-1-(hydroxymethyl)ethyl]-2-(isopropylamino)quinazoline-7-carboxamide], the inhibition at 1 µM is 25%.

Staying with this assay, now noted: @10 uM; read-out: % Inhibition JNK-1.
Consider `O=C(Nc1ccnn1Cc1ccccc1)c1cccc2cnc(N[C@H]3CC[C@H](O)CC3)nc12` [Example 311, N-(1-benzyl-1H-pyrazol-5-yl)-2-[(trans-4-hydroxycyclohexyl)amino]quinazoline-8-carboxamide], for which the inhibition at 10 µM worked out at 36%.

As to `CN1CCCCC1COc1cccc2cnc(N[C@H]3CC[C@H](O)CC3)nc12` (stereo partly drawn) [Example 252, trans-4-({8-[(1-methylpiperidin-2-yl)methoxy]quinazolin-2-yl}amino)cyclohexanol], the inhibition at 10 µM came out at 59%.

The same assay, now with this note: JNK-1.
Consider `O=C(NCCN1CCCCC1=O)c1ccc2cnc(N[C@H]3CC[C@H](O)CC3)nc2c1` [Example 370, 2-[(trans-4-hydroxycyclohexyl)amino]-N-(2-(2-oxopiperidin-1-yl)ethyl]quinazoline-7-carboxamide], for which affinity was put at a Ki of 2470 nM.

Compound `N[C@H]1CC[C@H](Nc2ncc3cccc(OC4CCOCC4)c3n2)CC1` [Example 178, trans-N-[8-(tetrahydro-2H-pyran-4-yloxy)quinazolin-2-yl]cyclohexane-1,4-diamine] had a Ki of 744 nM.

The compound `CC(C)Nc1ncc2ccc(C(=O)N[C@H](CO)c3ccccc3)cc2n1` [Example 394, N-[(1S)-2-hydroxy-1-phenylethyl]-2-(isopropylamino)quinazoline-7-carboxamide] had a Ki of 391 nM.

With `CN([C@H]1CC[C@H](Nc2ncc3cccc(C(=O)N[C@@H]4COC[C@H]4O)c3n2)CC1)S(C)(=O)=O` (relative stereo) [Example 141, N-[(trans)-4-hydroxytetrahydrofuran-3-yl]-2-({trans-4-[methyl(methylsulfonyl)amino]cyclohexyl}amino)quinazoline-8-carboxamide], the inhibition constant (Ki) was 29 nM.

As for `Cc1ccc2cnc(N[C@H]3CC[C@H](O)CC3)nc2c1OCC(=O)N(C)C` [Example 207, 2-({2-[(trans-4-hydroxycyclohexyl)amino]-7-methylquinazolin-8-yl}oxy)-N,N-dimethylacetamide], the inhibition constant Ki amounted to 1060 nM. Compared with the last compound, the Ki is about 37-fold higher.

Compound `O=C(N[C@@H]1COC[C@H]1O)c1ccc2cnc(NC3CCCCC3)nc2c1` [Example 405, 2-(cyclohexylamino)-N-[(3R,4S)-4-hydroxytetrahydrofuran-3-yl]quinazoline-7-carboxamide] yielded a Ki of 722 nM.

Regarding `O[C@H]1CC[C@H](Nc2ncc3cccc(O[C@H]4CCOC4)c3n2)CC1` [Example 168, trans-4-({8-[(3S)-tetrahydrofuran-3-yloxy]quinazolin-2-yl}amino)cyclohexanol], the inhibition constant (Ki) was 574 nM.

In the case of `CCn1cc(CNC(=O)c2ccc3cnc(N[C@H]4CC[C@H](O)CC4)nc3c2)cn1` [Example 356, N-[(1-ethyl-1H-pyrazol-4-yl)methyl]-2-[(trans-4-hydroxycyclohexyl)amino]quinazoline-7-carboxamide], affinity was put at a Ki of 1480 nM.
